{"source": "paper PMC12621043", "about": "“Un-LOK-ing a New Approach for Conformational Selective Targeting of STK10 (LOK)” (ACS Medicinal Chemistry Letters, 2025)", "key": {"STK10 [1]": {"target": "T1, STK10 (Homo sapiens, UniProt O94804)", "T1 construct": "purchased in-house DSF kinase panel (SGC-style construct names; the trailing letter is the construct ID)", "T1 sequence (O94804 18-317 limits assumed)": "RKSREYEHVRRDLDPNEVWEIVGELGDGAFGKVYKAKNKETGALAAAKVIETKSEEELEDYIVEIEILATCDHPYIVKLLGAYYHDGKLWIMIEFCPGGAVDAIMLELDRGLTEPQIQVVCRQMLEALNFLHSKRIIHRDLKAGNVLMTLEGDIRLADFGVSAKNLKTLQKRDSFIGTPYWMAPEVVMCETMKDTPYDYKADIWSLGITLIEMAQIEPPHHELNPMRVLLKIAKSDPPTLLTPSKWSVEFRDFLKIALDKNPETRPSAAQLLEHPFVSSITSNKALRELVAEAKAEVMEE", "assay": "Surface plasmon resonance (SPR)", "format": "binding", "conditions": "1:1 Langmuir kinetic model, 25 °C", "protocol": "each well using a multichannel pipette (Eppendorf). Plates were incubated at 37 °C for 1 hour.\nFor substrate addition, 5 μL of 8 μM AQT0505 peptide was added to each well using the Mantis […]\ntemperature for an additional hour.\nFluorescence of the SOX-peptide was measured after excitation at 360 nm and emission at 487 nm using a PHERAstar plate reader (BMG Labtech). IC50 values were calculated by nonlinear regression of log[inhibitor] versus normalized response using GraphPad Prism 8 (www.graphpad.com, RRID:SCR_002798).\nSPR. Surface plasmon resonance (SPR) experiments were conducted using a Biacore T200 instrument equipped with a Series S Sensor Chip NTA (Cytiva) at 25 °C. His-STK10 was immobilized at a flow rate of 10 µL/min on flow channels (FC) 2 while FC1 served as a blank reference without protein. Nickel loading of the chip was achieved by injecting 500 µM NiCl₂.\nTo activate the chip surface for covalent coupling, 483 mM EDC and 10 mM NHS were mixed in a 1:1 (v/v) ratio and injected. […]\nCompound 23 was measured in duplicates using Multi-Cycle Kinetics, with 10 concentrations ranging from 0.01 µM to 5 μM injected across FC1 and FC2 at 30 µL/min for 150 s. Interaction data was FC1-referenced, blank-subtracted, solvent-corrected, and analyzed using Biacore T200 Evaluation Software version 3.2.1. […]"}, "STK10 [2]": {"target": "T1, STK10", "conditions": "Figure 1, previous published dual STK10/SLK inhibitors, ref Serafim et al.; read-out: STK10 in vitro IC50; cited from earlier work"}, "STK10 [3]": {"target": "T1, STK10", "conditions": "Figure 1, previous published dual STK10/SLK inhibitors, ref Serafim et al.; read-out: STK10 cellular IC50; cited from earlier work"}}, "note": "“And” between values parts separate entries of the source, which are not always exact repeats. Equal values may be shown once. Read-outs that look alike come from different tables or passages of the source.", "data": [{"smiles": "Cc1cc(Cl)ccc1CNC(=O)Nc1ccc2cc1OCCOCCNc1ccn3ncc-2c3n1", "note": "[compound 23]", "values": [{"measurement": "Kd", "setting": "STK10 [1]", "value": "365 ± 45", "unit": "nM"}]}, {"smiles": "COc1ccc(CNC(=O)Nc2ccc3cc2OCCOCCNc2ccn4ncc-3c4n2)cc1", "note": "[compound 31]", "values": [{"measurement": "IC50", "setting": "STK10 [2]", "value": 12, "unit": "nM"}, {"measurement": "IC50", "setting": "STK10 [3]", "value": "> 1000 nM and 1400 nM"}]}]}
